Experimental findings from patent US10709702B2, “Treatment of skin disorders by topical administration of VEGF inhibitors” (AMD THERAPEUTICS LLC, priority 2015, dated 2020) are described below.

Each structure is given as a SMILES string.

The series can be described thus: Skin absorption after topical application to a hand, disappearance of red color. The class given is in vivo, human.

Turning to `CO[C@H]1/C=C/O[C@@]2(C)Oc3c(C)c(O)c4c(O)c(c(/C=N/N5CCN(C)CC5)c(O)c4c3C2=O)NC(=O)/C(C)=C\C=C\[C@H](C)[C@H](O)[C@@H](C)[C@@H](O)[C@@H](C)[C@H](OC(C)=O)[C@@H]1C` [rifampicin], the “Time until absorbed in skin tissue (red color disappeared)” value was 1 to 2 h.
